Results reported in patent EP0363671A2, “Use of ACE inhibitors against the formation of neo-intima after vascular infliction” (F. HOFFMANN-LA ROCHE AG, priority 1988, dated 1990).

Legend:
[1] = tested on: Neointima in der ballonisierten Arteria carotis; experiment: Neointima formation after balloon catheter injury (ballooning) of the carotid artery, morphometry of cross-sections 14 days later; type: in vivo, Ratten, Stamm: RORO
Text: Eine Arterie wird mit Hilfe eines Ballonkatheters, der durch das Gefässlumen geschoben wird, von innen verletzt (Ballonisierung). Dabei wird die innerste Zellschicht, das Endothel, entfernt und die Muskelzellen der Media leicht geschädigt. Die Muskelzellen werden dadurch zur Proliferation und Migration in die Intima angeregt. […] Das Ausmass der Neointimabildung wird anschliessend an Querschnitten durch die Arterie mit Hilfe morphometrischer Methoden ausgemessen.
Die Tiere wurden randomisiert in eine Kontrollgruppe und in eine Behandlungsgruppe eingeteilt. Es wurden je 11 Tiere als Kontroll- bzw. behandelte Tiere eingesetzt.
Die Tiere der Behandlungsgruppe erhielten 20 Tage lang soviel Cilazapril dem Futter beigemischt, dass die tägliche Cilazaprilaufnahme durchschnittlich 10 mg/kg betrug. […] Die Kontrolltiere erhielten das gleiche Laborfutter ohne Zusatz. Die Ballonisierung der Arteria carotis communis wurde 6 Tage nach der ersten Gabe von Cilazapril durchgeführt. Die Tiere wurden mit Aetherinhalation und subcutaner Verabreichung von 200 mg/kg Hexobarbital-Na narkotisiert. Die distale linke Arteria carotis communis und das Bifurkationsgebiet von Carotis externa und interna wurden freigelegt. Der FOGARTY-Katheter (12-060-2F, Edwards Laboratories, Santa Anna, CA, USA) wurde durch die Arteria carotis externa in die Arteria carotis communis bis zum Aortenbogen eingeführt, der Ballon mit Wasser gefüllt (Füllungsvolumen ca. 0,01-0,015 ml) und gegen einen leichten Widerstand zurückgezogen. Dieses Procedere wurde zweimal wiederholt. Die Arteria carotis externa wurde ligiert und die Wunde vernäht. Die Operateure hatten keine Kenntnis, ob es sich um behandelte oder unbehandelte Tiere handelte.
14 Tage nach der Ballonisierung wurden die Ratten mit Aether anaesthesiert und die Carotiden durch Perfusion mit Fixationsmittel (2,5% Glutaraldehyd in 0,1 M Phosphatpuffer, pH 7,4), fixiert. Hierzu wurde eine Sonde durch den linken Herzventrikel in die aufsteigende Aorta geführt (Einfluss) und eine zweite Sonde durch den rechten Ventrikel in den Vorhof geschoben (Abfluss). Das Gefässsystem wurde zunächst mit 10 ml PBS ("phosphate buffered saline"; gepufferte isotonische NaCI-Lösung) gespült und dann 15 min lang mit Fixationsmittel bei einem Druck von 90 mm Quecksilbersäule fixiert. Anschliessend wurden sowohl die linke (ballonisierte) als auch die rechte (nicht-ballonisierte) Arteria carotis (Kontrolle) herauspräpariert, von Gewebe befreit und zur weiteren Fixation in 2,5% Glutaraldehyd in 0,1 M Cacodylat-Puffer eingelegt. […] Das mittlere Segment wurde für die morphologischen Untersuchungen verwendet.
Semidünne Querschnitte (1 µm dick) wurden mit Toluidinblau und basischem Fuchsin gefärbt.
Aus diesen Messungen wurden folgende Parameter berechnet: • (6) Die mittlere Dicke der Neointima in um, berechnet als Kreisring aus der Querschnittsfläche der Neointima. Hierzu wurde der Neointimaquerschnitt in einen Kreisring transformiert, dessen äussere Begrenzung die Lamina elastica interna bildete. • (7) Die Querschnittsfläche der Neointima zur Querschnittsfläche der Media in Prozent (normalisierte Neointimafläche) • (8) Der Prozentsatz der mit Neointima bedeckten Lamina elastica interna.

[2] = Lowering of systolic blood pressure by the dose mixed into the feed; type: in vivo, Ratten, Stamm: RORO; conditions: average daily intake 10 mg/kg mixed into feed
Method: Die Tiere der Behandlungsgruppe erhielten 20 Tage lang soviel Cilazapril dem Futter beigemischt, dass die tägliche Cilazaprilaufnahme durchschnittlich 10 mg/kg betrug. Es handelt sich um eine Dosierung, die den systolischen Blutdruck um ca. 25% senkte. Die Kontrolltiere erhielten das gleiche Laborfutter ohne Zusatz. Die Ballonisierung der Arteria carotis communis wurde 6 Tage nach der ersten Gabe von Cilazapril durchgeführt. Die Tiere wurden mit Aetherinhalation und subcutaner Verabreichung von 200 mg/kg Hexobarbital-Na narkotisiert. Die distale linke Arteria carotis communis und das Bifurkationsgebiet von Carotis externa und interna wurden freigelegt. Der FOGARTY-Katheter (12-060-2F, Edwards Laboratories, Santa Anna, CA, USA) wurde durch die Arteria carotis externa in die Arteria carotis communis bis zum Aortenbogen eingeführt, der Ballon mit Wasser gefüllt (Füllungsvolumen ca. 0,01-0,015 ml) und gegen einen leichten Widerstand zurückgezogen. Dieses Procedere wurde zweimal wiederholt. Die Arteria carotis externa wurde ligiert und die Wunde vernäht. Die Operateure hatten keine Kenntnis, ob es sich um behandelte oder unbehandelte Tiere handelte.

[3] = versus untreated control animals, about 10 mg/kg daily in feed, 14 days after ballooning

CCOC(=O)[C@H](CCc1ccccc1)N[C@H]1CCCN2CCC[C@@H](C(=O)O)N2C1=O [Cilazapril]
Mittlere Dicke der Neointima ([1]; calculated as circular ring from the neointima cross-sectional area, mean ± SD, n = 11, about 10 mg/kg daily in feed, 14 days after ballooning, controls 50 ± 25): 8±7 µm | Querschnittsfläche des Lumens ([1]; mean ± SD, n = 11, about 10 mg/kg daily in feed for 20 days, 14 days after ballooning, untreated controls 324 x 10^3): 468 x 10^3±114 x 10^3 µm^2 | Prozentsatz von mit Neointima bedeckter Lamina elastica interna ([1]; mean ± SD, n = 11, about 10 mg/kg daily in feed, 14 days after ballooning, controls 93 ± 15): 35±29% | Querschnittsfläche der Neointima ([1]; mean ± SD, n = 11, cilazapril about 10 mg/kg daily in feed for 20 days, ballooning on day 6, left carotid fixed 14 days after ballooning, untreated controls 109 x 10^3): 20 x 10^3±18 x 10^3 µm^2 | Verhältnis von Querschnittsfläche der Neointima zu Querschnittsfläche der Media ([1]; normalised neointima area, mean ± SD, n = 11, about 10 mg/kg daily in feed, 14 days after ballooning, controls 101 ± 43): 23±21% | Tiere mit vollständig gehemmter Neointimabildung ([1]; number of treated animals out of 11, about 10 mg/kg daily in feed, 14 days after ballooning): 3 von 11 | Hemmung (Querschnittsfläche der Neointima) [1, 3]: 82% | Hemmung (mittlere Dicke der Neointima) [1, 3]: 84% | Senkung des systolischen Blutdrucks [2]: ca. 25%
